Experimental data from PubChem BioAssay (NCI).
Values joined by “and” are separate entries in the source; they are usually repeats but may differ in a detail not shown here. Identical values can stand only once.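 Method: 48-hour compound exposure of cells in 96-well plates, five concentrations, linear interpolation of endpoints. GI50 = concentration required for 50% inhibition of growth. TGI is the concentration that stops growth completely.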

Legend:
Assay in all cases: DTP human tumour cell line panel, 48 h
HS 578T breast = test system: HS 578T breast
MDA-MB-231 breast = test system: MDA-MB-231 breast
SF-295 CNS = test system: SF-295 CNS
UACC-257 melanoma = test system: UACC-257 melanoma
OVCAR-5 ovarian = test system: OVCAR-5 ovarian
CCRF-CEM leukemia = test system: CCRF-CEM leukemia
LOX IMVI melanoma = test system: LOX IMVI melanoma
NCI-H23 lung = test system: NCI-H23 lung
NCI/ADR-RES ovarian = test system: NCI/ADR-RES ovarian
OVCAR-3 ovarian = test system: OVCAR-3 ovarian

Compound	GI50 (HS 578T breast)	TGI (HS 578T breast)	GI50 (MDA-MB-231 breast)	TGI (MDA-MB-231 breast)	GI50 (SF-295 CNS)	TGI (SF-295 CNS)	GI50 (UACC-257 melanoma)	TGI (UACC-257 melanoma)	GI50 (OVCAR-5 ovarian)	TGI (OVCAR-5 ovarian) [µM]	GI50 (CCRF-CEM leukemia) [µM]	TGI (CCRF-CEM leukemia) [µM]	GI50 (LOX IMVI melanoma)	TGI (LOX IMVI melanoma)	GI50 (NCI-H23 lung)	TGI (NCI-H23 lung)	GI50 (NCI/ADR-RES ovarian)	TGI (NCI/ADR-RES ovarian)	GI50 (OVCAR-3 ovarian)	TGI (OVCAR-3 ovarian)
O=P(O)(O)OCC1OC(n2cnc3c(NCc4ccco4)ncnc32)C(O)C1O (stereo not given)	0.802 µM	7.17 µM	0.479 µM	13.9 µM	2.53 µM	> 35.1 µM	> 100 µM	> 100 µM	5.64 µM	> 100	0.315	1.14	0.374 µM	1.47 µM	3.84 µM	> 70.5 µM	1.62 µM	> 53.7 µM	0.422 µM	1.65 µM
CCC#CC[C@H](O)C/C=C1/C(=O)C=C[C@@H]1C/C=C\CCCC(=O)OC	4.3 µM	46.6 µM	1.95 µM	7.78 µM	1.28 µM	3.15 µM	0.856 µM	2.43 µM	1.81 µM	7.88	0.413	5.66	0.754 µM	1.54 µM	1.02 µM	2.78 µM	1.16 µM	3.4 µM	1.55 µM	6.11 µM
COc1cc(OC)c(/C=C/C(=O)c2ccc(Nc3ncnc4ccccc34)cc2)c(OC)c1	0.725 µM	5.66 µM	1.43 µM	4.11 µM	0.353 µM	1.92 µM	1.24 µM	3.89 µM	1.88 µM	5.32	0.629	5.51	1.06 µM	6.52 µM	0.843 µM	11.5 µM	0.394 µM	2.55 µM	0.365 µM	1.43 µM
C=C1C(=O)O[C@H]2[C@H]1CC/C(Cn1cc(Cc3c[nH]c4ccccc34)nn1)=C\CC[C@@]1(C)O[C@@H]21	3.88 µM	18.3 µM	1.72 µM	3.48 µM	4.71 µM	17.2 µM	2.11 µM	4.45 µM	1.8 µM	3.48	0.718	5.92	1.55 µM	3.03 µM	2.02 µM	4.56 µM	6.22 µM	21.9 µM	1.73 µM	3.15 µM
O=C(O)CNc1ccc(Cl)c(Cl)c1	–	> 100 µM	–	> 100 µM	–	75.9 µM	–	96.3 µM	–	> 100	–	84.8	–	> 100 µM	–	> 100 µM	–	84.6 µM	–	82.4 µM
O=C1NCN(c2ccccc2)C12CCN(CCCC(c1ccc(F)cc1)c1ccc(F)cc1)CC2	2.17 µM	6.51 µM	1.89 µM	3.88 µM	1.5 µM	3.1 µM	1.59 µM	3.15 µM	3.76 µM	16.4	2.14	6.09	1.8 µM	3.32 µM	3.31 µM	15.2 µM	2.85 µM	10.2 µM	2 µM	3.98 µM
CCCCCCCN(CCCCCCC)C(=N)c1ccnc2ccccc12	1.64 µM	4.36 µM	1.62 µM	3.58 µM	1.69 µM	3.45 µM	1.72 µM	3.5 µM	1.8 µM	3.6	2.14	5.27	1.42 µM	2.82 µM	1.54 µM	3.08 µM	1.54 µM	2.96 µM	1.45 µM	2.84 µM
CC/C=C\C[C@H](O)C/C=C1/C(=O)C=C[C@@H]1C/C=C\CCCC(=O)OC(C)C	5.21 µM	41.2 µM	3.17 µM	9.77 µM	2.91 µM	8.34 µM	2.16 µM	5.49 µM	3.07 µM	8.41	0.425	2.53	0.18 µM	0.41 µM	1.73 µM	4.37 µM	3.11 µM	17.2 µM	0.483 µM	1.71 µM
c1ccc2cc(Cn3cc[n+](Cc4ccc5ccccc5c4)c3)ccc2c1	1.28 µM	8.97 µM	0.729 µM	2.53 µM	3.65 µM	19.6 µM	0.587 µM	2.55 µM	1.71 µM	7.19	1.61	11	1.1 µM	2.39 µM	0.901 µM	10.1 µM	> 100 µM	> 100 µM	0.675 µM	2.18 µM
CN(C)c1ccc(C(=N)c2ccc(N(C)C)cc2)cc1	1.73 µM and 4.1 µM	7.64 µM and 59.3 µM	5.77 µM and 7.67 µM	47.5 µM and 30.9 µM	2.01 µM and 3.4 µM	11.9 µM and 21.9 µM	6.56 µM and 4.76 µM	30.8 µM and 32.6 µM	7.57 µM and 7.89 µM	> 100	5.33	64.5	5.37 µM and 4.92 µM	33 µM and 30.2 µM	4.47 µM and 2.16 µM	34.6 µM and 6.59 µM	1.68 µM and 1.52 µM	7.42 µM and 5.04 µM	1.68 µM and 1.91 µM	5.26 µM and 7.3 µM
CN(C)C[C@H]1CCn2c(c(C3=C(c4cn(C)c5ccccc45)C(=O)NC3=O)c3ccccc32)C1	2.78 µM	10.1 µM	3.96 µM	10.3 µM	5.21 µM	11.3 µM	4.45 µM	8.45 µM	5.35 µM	17	4.46	12.4	4.58 µM	8.56 µM	6.58 µM	15 µM	5.67 µM	14.2 µM	4.54 µM	8.97 µM
